Measured values reported in publication PMC6158327, “Negative Allosteric Modulators of mGlu7 Receptor as Putative Antipsychotic Drugs” (Frontiers in Molecular Neuroscience, 2018).

Tests used:
[1] = test system: amphetamine-induced hyperactivity; design: method as in Kalinichev et al., 2013; details: 100 and 150 mg/kg, subcutaneous; ref Kalinichev et al., 2013; cited from earlier work
[2] = test system: MK-801-induced deficits in the NOR test; assay: Novel object recognition test (MK-801-induced deficits); type: in vivo, Albino Swiss mice; details: 30 min before MK-801 (0.3 mg/kg), mice
Experimental: The experiment was performed according to [Nilsson et al., 2007] with minor modifications ([Woźniak et al., 2016b]). Following a 2-day habituation period (10 min/day), a training trial was performed, where mice were allowed to explore two identical objects for 5 min. About 1 h later, a test trial was conducted, where one of the familiar object was replaced by a novel object. The animals were then allowed to explore the objects for 5 min. […] Time spend exploring (i.e., sniffing or touching) the familiar (Tfamiliar) or novel object (Tnovel) was measured by a trained observer and then the recognition index was calculated for each mouse [(Tnovel - Tfamiliar)/(Tfamiliar + Tnovel)] × 100.

[3] = molecular target: Cytochrome P450 3A4 (Homo sapiens, UniProt P08684); assay: Cytochrome P450 inhibition, 3A4; type: in vitro ADME
Cytochrome P450 3A4, sequence (P08684 whole entry): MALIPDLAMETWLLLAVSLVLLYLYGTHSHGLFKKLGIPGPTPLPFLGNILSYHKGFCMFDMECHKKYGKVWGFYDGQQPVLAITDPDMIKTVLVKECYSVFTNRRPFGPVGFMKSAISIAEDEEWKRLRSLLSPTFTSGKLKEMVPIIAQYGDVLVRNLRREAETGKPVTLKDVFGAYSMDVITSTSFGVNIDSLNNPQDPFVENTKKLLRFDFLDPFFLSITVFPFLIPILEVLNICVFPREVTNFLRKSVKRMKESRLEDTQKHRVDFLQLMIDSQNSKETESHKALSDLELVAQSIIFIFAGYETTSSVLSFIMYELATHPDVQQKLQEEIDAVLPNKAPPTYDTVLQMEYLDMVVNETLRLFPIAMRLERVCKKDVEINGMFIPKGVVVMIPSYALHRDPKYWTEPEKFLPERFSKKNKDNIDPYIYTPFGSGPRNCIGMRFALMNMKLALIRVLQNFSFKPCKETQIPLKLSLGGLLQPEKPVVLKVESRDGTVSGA

[4] = test system: MK-801-induced disruption in spatial delayed alternation; assay: Spatial delayed alternation test (T-maze); type: in vivo, Wistar rats; details: 10 mg/kg, 30 min prior to MK-801 (0.1 mg/kg), rats
Experimental: The spatial delayed alternation test was performed using a wooden T-maze, according to [Sławińska et al., 2013] and [Wierońska et al., 2015b].
During the adaptation phase, lasting 3 days, the animals were allowed to freely explore the maze for 10 min. For the next 2 days, rats were confined to either of the two end-arms and allowed to drink a 10 % sucrose solution there for 10 min twice daily. On the following day, a 2-week training phase was started. The animals performed one training session per day, which consisted of one forced trial (i.e., one of the end-arms was closed) followed by ten free choice trials. During the free choice trial the animal was placed in the starting arm and after the guillotine door was raised, it was allowed to choose to enter one of the end-arms. After the response, the rat was placed back to the starting arm, where it stayed for 10 s. If the chosen end-arm was the opposite to the previously visited one, a correct response was scored, and the animal was closed in the compartment where it was allowed to drink the sucrose solution for 5 s. After an incorrect response, the animal was gently returned to the starting arm. The training phase was carried out until the animals scored 7 correct responses in a training session in 2 consecutive days.
The test was started 30 min after the MK-801 injection.

[5] = test system: MK-801-induced increase in immobility time; assay: Modified forced swim test after chronic MK-801; type: in vivo, Albino Swiss mice; details: chronic (13 days) MK-801 0.4 mg/kg, mice
Experimental: The modified forced swim test was performed according to the method introduced by Noda ([Noda et al., 1995], [1997]; [Wierońska et al., 2015a]; [Woźniak et al., 2016a]). The swim tests were performed in a glass cylinder (height, 20 cm; internal diameter, 15 cm) containing 11 cm of water maintained at 23–24°C. After the acclimation period, the animals underwent the first swim test, where the immobility time was measured during a 3 min period (T1). On the next day, chronic (13 days) MK-801 administration (0.4 mg/kg, i.p.) was started. After a 1-day break, on the 15th day of experiment, the second swim session was performed and the immobility time during 3-min test was measured again (T2). The T2 - T1 difference was reported as the result of the experiment.

Row | Structure (SMILES) | Activity in amphetamine-induced hyperactivity [1] | Effect on MK-801-induced reduction of recognition index (NOR) ([2]; 1 mg/kg i.p.) | Effect on MK-801-induced reduction of recognition index (NOR) ([2]; 5 mg/kg i.p.) | Effect on MK-801-induced reduction of recognition index (NOR) ([2]; 15 mg/kg i.p.) | IC50 [3] [µM] | Effect on MK-801-induced reduction of choice accuracy (spatial delayed alternation) [4] | Effect on MK-801-induced increase in immobility time (modified forced swim test) ([5]; 1 mg/kg i.p. acutely 30 min before T2) | Effect on MK-801-induced increase in immobility time (modified forced swim test) ([5]; 15 mg/kg i.p. acutely 30 min before T2)
1 | CCc1nc2c(o1)CC(c1ccc(C)cc1C)CC2=O (centres unmarked) [ADX71743, 6-(2,4-Dimethylphenyl)-2-ethyl-6,7-dihydro-4(5H)-benzoxazolone] | active | significant reversal of MK-801-induced effect | significant reversal of MK-801-induced effect | significant reversal of MK-801-induced effect | > 10 |  |  | 
2 | COc1ccc(-c2cc3onc(-c4ccncc4)c3c(=O)n2C)cc1 [MMPIP, 6-(4-Methoxyphenyl)-5-methyl-3-(4-pyridinyl)-isoxazolo(4,5-c)pyridin-4(5H)-one] |  |  |  |  |  | rescued the MK-801–induced cognitive impairments | significant reversal of MK-801-induced effect | significant reversal of MK-801-induced effect
